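A five-concentration, 48-hour dose response in 96-well plates underlies each endpoint, interpolated linearly between surrounding concentrations. GI50: concentration for 50% inhibition of growth. At the TGI there is no net growth.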
Key:
Assay in all cases: growth of human tumour cells (NCI), 48 h; in the data active = GI50 below about 0.43 µM; inactive = the rest
786-0 renal = tested on: 786-0 renal
A498 renal = tested on: A498 renal
A549 NSCLC = tested on: A549 NSCLC
ACHN renal = tested on: ACHN renal
BT-549 breast = tested on: BT-549 breast
CAKI-1 renal = tested on: CAKI-1 renal
CCRF-CEM leukemia = tested on: CCRF-CEM leukemia
COLO 205 colon = tested on: COLO 205 colon
DU-145 prostate = tested on: DU-145 prostate
HCC-2998 colon = tested on: HCC-2998 colon
HCT-116 colon = tested on: HCT-116 colon
HCT-15 colon = tested on: HCT-15 colon
HL-60(TB) leukemia = tested on: HL-60(TB) leukemia
HOP-62 NSCLC = tested on: HOP-62 NSCLC
HS 578T breast = tested on: HS 578T breast
HT29 colon = tested on: HT29 colon
IGROV1 ovarian = tested on: IGROV1 ovarian
K-562 leukemia = tested on: K-562 leukemia
KM12 colon = tested on: KM12 colon
LOX IMVI melanoma = tested on: LOX IMVI melanoma
M14 melanoma = tested on: M14 melanoma
MALME-3M melanoma = tested on: MALME-3M melanoma
MCF7 breast = tested on: MCF7 breast
MDA-MB-231 breast = tested on: MDA-MB-231 breast
MDA-MB-435 = tested on: MDA-MB-435
MOLT-4 leukemia = tested on: MOLT-4 leukemia
NCI-H226 lung = tested on: NCI-H226 lung
NCI-H23 lung = tested on: NCI-H23 lung

CCNC(=O)[C@@H]1CCCN2C(=O)CC[C@H](NC(=O)[C@H](Cc3ccc(OP(=O)(O)O)cc3)NC(C)=O)C(=O)N12
inactive: GI50 (786-0 renal) > 25 µM | GI50 (A498 renal) > 25 µM | GI50 (A549 NSCLC) > 25 µM | GI50 (ACHN renal) > 25 µM | GI50 (BT-549 breast) > 25 µM | GI50 (CAKI-1 renal) > 25 µM | GI50 (CCRF-CEM leukemia) > 25 µM | GI50 (COLO 205 colon) > 25 µM | GI50 (DU-145 prostate) > 25 µM | GI50 (HCC-2998 colon) > 25 µM | GI50 (HCT-116 colon) > 25 µM | GI50 (HCT-15 colon) > 25 µM | GI50 (HL-60(TB) leukemia) > 25 µM | GI50 (HOP-62 NSCLC) > 25 µM | GI50 (HS 578T breast) > 25 µM | GI50 (HT29 colon) > 25 µM | GI50 (IGROV1 ovarian) > 25 µM | GI50 (K-562 leukemia) > 25 µM | GI50 (KM12 colon) > 25 µM | GI50 (LOX IMVI melanoma) > 25 µM | GI50 (M14 melanoma) > 25 µM | GI50 (MALME-3M melanoma) > 25 µM | GI50 (MCF7 breast) > 25 µM | GI50 (MDA-MB-231 breast) > 25 µM | GI50 (MDA-MB-435) > 25 µM | GI50 (MOLT-4 leukemia) > 25 µM | GI50 (NCI-H226 lung) > 25 µM | GI50 (NCI-H23 lung) > 25 µM
> 25 µM: TGI (786-0 renal) | TGI (A498 renal) | TGI (A549 NSCLC) | TGI (ACHN renal) | TGI (BT-549 breast) | TGI (CAKI-1 renal) | TGI (CCRF-CEM leukemia) | TGI (COLO 205 colon) | TGI (DU-145 prostate) | TGI (HCC-2998 colon) | TGI (HCT-116 colon) | TGI (HCT-15 colon) | TGI (HL-60(TB) leukemia) | TGI (HOP-62 NSCLC) | TGI (HS 578T breast) | TGI (HT29 colon) | TGI (IGROV1 ovarian) | TGI (K-562 leukemia) | TGI (KM12 colon) | TGI (LOX IMVI melanoma) | TGI (M14 melanoma) | TGI (MALME-3M melanoma) | TGI (MCF7 breast) | TGI (MDA-MB-231 breast) | TGI (MDA-MB-435) | TGI (MOLT-4 leukemia) | TGI (NCI-H226 lung) | TGI (NCI-H23 lung)
